Here are results for 12 molecules from patent US7709478B2, “Acylated 6,7,8,9-tetrahydro-5H-benzocycloheptenyl amines and their use as pharmaceutical agents” (sanofi-aventis Deutschland GmbH, priority 2001, dated 2010).

The subject of this test is eNOS promoter. Put plainly: Activation of eNOS transcription (eNOS promoter-luciferase reporter gene assay). The conditions noted are these: 18 h incubation; for EC50: EC50 of transcription induction ratio vs compound concentration, determined graphically, human endothelial cell line stably transfected with eNOS promoter-luciferase construct; for maximal fold induction / TIR(max): maximum transcription induction ratio (luciferase activity with compound / solvent alone), human endothelial cell line with eNOS promoter-luciferase construct; for maximal fold induction: read-out: TIR(max). It counts as cell-based, human. As to the method: Measurement of Activation of eNOS Transcription
Activation of eNOS transcription was measured as described in detail in Li et al. “Activation of protein kinase C alpha and/or epsilon enhances transcription of the human endothelial nitric oxide synthase gene”, Mol. Pharmacol. 1998; 53: 630-637.
Briefly, a 3.5 kB long fragment 5′ of the starting codon of the eNOS gene was cloned, sequenced and cloned in firefly luciferase expression plasmids to monitor activation of the eNOS promoter by reporter gene activity. A human endothelial cell line stable transfected and expressing this promoter-reporter construct was used for compound testing. Cells were incubated for 18 h with compounds.
All compounds were dissolved in sterile DMSO. A final concentration of 0.5% DMSO in complete medium was allowed. Induction of reporter gene expression in these cells was measured using a standard luciferase assay system (Promega, Cat. No E150) according to the manufacturer's instructions. Luciferase induction in cells incubated with compounds were compared to those incubated with solvent alone. The ratio of both activities (transcription induction ratio, TIR) was plotted as a function of compound concentration. Typically, TIR values started at low concentrations at a ratio of 1, indicating no compound effect, and extended up to a maximum TIR value TIR(max) which indicates the increase of the eNOS transcription. EC50 values of transcription induction ratios as a function of compound concentration were determined graphically.
Background: A reporter such as luciferase makes a cellular process visible.

One may read the EC50 as the concentration needed to bring the measured effect to its halfway point. Take `Nc1ncccc1C(=O)NC1CCCc2ccccc2C1` (single isomer, unassigned) [Compound 24, 2-AMINO-N-(6,7,8,9-TETRAHYDRO-5H-BENZOCYCLOHEPTEN-6-YL)-NICOTINAMIDE]: the EC50 turned out to be 30 nM and the maximal fold induction came to 3.1.

On to `Cc1ncccc1C(=O)NC1CCCc2ccccc2C1` (single isomer, unassigned) [Compound 26, 2-METHYL-N-(6,7,8,9-TETRAHYDRO-5H-BENZOCYCLOHEPTEN-6-YL)-NICOTINAMIDE], for which the EC50 amounted to 1800 nM and the maximal fold induction amounted to 3.1.

Turning to `Cc1nc(C)c(C(=O)NC2CCCc3ccccc3C2)s1` (single isomer, unassigned) [Compound 28, 2,4-DIMETHYL-THIAZOLE-5-CARBOXYLIC ACID (6,7,8,9-TETRAHYDRO-5H-BENZOCYCLOHEPTEN-6-YL)-AMIDE], the EC50 came out at 49 nM and the maximal fold induction was determined as 3.4.

For the molecule `Cc1nc(C)c(C(=O)NC2CCCc3ccccc3C2)s1` (single isomer, unassigned) [Compound 29, 2,4-DIMETHYL-THIAZOLE-5-CARBOXYLIC ACID (6,7,8,9-TETRAHYDRO-5H-BENZOCYCLOHEPTEN-6-YL)-AMIDE], the EC50 was 9600 nM and the “TIR(max)” value turned out to be 3.4.

Turning to `Cc1c(C(=O)NC2CCCc3ccccc3C2)cnn1-c1ccccc1` (single isomer, unassigned) [Compound 31, 5-METHYL-1-PHENYL-1H-PYRAZOLE-4-CARBOXYLIC ACID (6,7,8,9-TETRAHYDRO-5H-BENZOCYCLOHEPTEN-6-YL)-AMIDE], the EC50 is 5000 nM and the maximal fold induction amounted to 2.8.

Consider `Cc1cnc(C(=O)NC2CCCc3ccccc3C2)cn1` (single isomer, unassigned) [Compound 32, 5-METHYL-PYRAZINE-2-CARBOXYLIC ACID (6,7,8,9-TETRAHYDRO-5H-BENZOCYCLOHEPTEN-6-YL)-AMIDE], for which the 50% effective concentration (EC50) is 47 nM and the maximal fold induction amounted to 3.

Take `Cc1cnc(C(=O)NC2CCCc3ccccc3C2)cn1` (single isomer, unassigned) [Compound 33, 5-METHYL-PYRAZINE-2-CARBOXYLIC ACID (6,7,8,9-TETRAHYDRO-5H-BENZOCYCLOHEPTEN-6-YL)-AMIDE]: the 50% effective concentration (EC50) was 3300 nM and the “TIR(max)” value worked out at 2.6.

As to `O=C(NC1CCCc2ccccc2C1)c1cnn(-c2ccccc2)c1C(F)(F)F` (single isomer, unassigned) [Compound 34, 1-PHENYL-5-TRIFLUOROMETHYL-1H-PYRAZOLE-4-CARBOXYLIC ACID (6,7,8,9-TETRAHYDRO-5H-BENZOCYCLOHEPTEN-6-YL)-AMIDE], the half-maximal effective concentration (EC50) came to 60 nM and the maximal fold induction came out at 2.8.

Consider `O=C(NC1CCCc2ccccc2C1)c1cnn(-c2ccccc2)c1C(F)(F)F` (single isomer, unassigned) [Compound 35, 1-PHENYL-5-TRIFLUOROMETHYL-1H-PYRAZOLE-4-CARBOXYLIC ACID (6,7,8,9-TETRAHYDRO-5H-BENZOCYCLOHEPTEN-6-YL)-AMIDE], for which the EC50 was 3300 nM and the “TIR(max)” value is 3.5.

`O=C(NC1CCCc2ccccc2C1)c1ccc(C(F)(F)F)nc1` (single isomer, unassigned) [Compound 37, N-(6,7,8,9-TETRAHYDRO-5H-BENZOCYCLOHEPTEN-6-YL)-6-TRIFLUOROMETHYL-NICOTINAMIDE]: the EC50 turned out to be 283 nM and the maximal fold induction worked out at 2.9.

For the molecule `Cc1nc(C(F)(F)F)ccc1C(=O)NC1CCCc2ccccc2C1` (single isomer, unassigned) [Compound 39, 2-METHYL-N-(6,7,8,9-TETRAHYDRO-5H-BENZOCYCLOHEPTEN-6-YL)-6-TRIFLUOROMETHYL-NICOTINAMIDE], the concentration giving a half-maximal response (EC50) was 496 nM and the maximal fold induction is 2.9.

With `CN(C)c1cccc(C(=O)NC2CCCc3ccccc3C2)c1` (single isomer, unassigned) [Compound 43, 3-DIMETHYLAMINO-N-(6,7,8,9-TETRAHYDRO-5H-BENZOCYCLOHEPTEN-6-YL)-BENZAMIDE], the EC50 was determined as 80 nM and the maximal fold induction worked out at 3.2.
